A word on the IC50: it is the concentration at which inhibition is half-maximal.

Counter-ions that a name gives are not always drawn.

The test addresses T1, human ASK1 (Homo sapiens, UniProt Q99683).
T1 construct: a 2.2 kb DNA fragment containing an ASK1 gene was recovered from the gel; made in house; host or cells: Sf-21 insect cells, recombinant baculovirus (pFASTBAC1, Bac-to-Bac)
T1 sequence (Q99683 649-1374 limits assumed): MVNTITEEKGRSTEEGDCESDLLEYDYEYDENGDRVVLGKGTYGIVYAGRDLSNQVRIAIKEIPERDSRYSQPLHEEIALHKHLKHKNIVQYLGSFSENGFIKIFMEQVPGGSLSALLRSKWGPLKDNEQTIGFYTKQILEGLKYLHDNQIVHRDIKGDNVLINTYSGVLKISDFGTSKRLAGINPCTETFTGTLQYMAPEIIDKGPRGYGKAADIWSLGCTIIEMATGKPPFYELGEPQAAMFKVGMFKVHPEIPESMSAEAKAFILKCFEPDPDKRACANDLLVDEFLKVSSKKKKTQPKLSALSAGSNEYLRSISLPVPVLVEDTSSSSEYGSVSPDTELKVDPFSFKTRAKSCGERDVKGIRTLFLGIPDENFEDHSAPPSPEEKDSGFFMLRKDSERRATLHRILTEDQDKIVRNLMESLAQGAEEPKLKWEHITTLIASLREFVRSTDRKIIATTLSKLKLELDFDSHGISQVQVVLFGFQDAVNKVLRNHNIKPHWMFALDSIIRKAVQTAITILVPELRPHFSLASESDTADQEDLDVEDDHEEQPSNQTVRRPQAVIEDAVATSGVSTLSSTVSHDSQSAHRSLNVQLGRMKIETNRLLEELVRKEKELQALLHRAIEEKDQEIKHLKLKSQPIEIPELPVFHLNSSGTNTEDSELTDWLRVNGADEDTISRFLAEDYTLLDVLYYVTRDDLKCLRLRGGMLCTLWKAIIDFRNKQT
Put plainly: Scintillation assay measuring inhibition of ASK1 phosphorylation of myelin basic protein. The format is biochemical. As to conditions: active ASK1 protein 30 ng, myelin basic protein 1 μg, [γ-32P]ATP, room temperature 30 min; values given as ranges; read-out: Enzyme Activity IC50. On the procedure:
Cloning of cDNA encoding human ASK1 was conducted by PCR using primers, 5′-[…] AGAGAAGGGGA-3′ (SEQ ID NO: 1) and 5′-[…]-3′ (SEQ ID NO: 2), from human heart cDNA library (Becton, Dickinson and Company). The PCR product was subjected to agarose gel (1%) electrophoresis, a 2.2 kb DNA fragment containing an ASK1 gene was recovered from the gel, and then digested with restriction enzymes, NotI and SalI, and inserted into a plasmid pFASTBAC1 (Invitrogen) to prepare a plasmid pFB-ASK1. The insert was verified by sequencing. Recombinant baculovirus was prepared according to the procedure of the Bac-to-Bac baculovirus expression system (Invitrogen).
Sf-21 cells were seeded to achieve 1×10^6 cells/mL in 100 mL of Sf-900 II SFM medium (Invitrogen) which contains 10% fetal calf serum and then cultured at 27° C. for 24 hrs. To express ASK1 in cells, 0.15 mL of the recombinant baculovirus virus stock was added to cells, and the then cultured for 60 hrs. The cells were separated from the culture solution by centrifugation at 3000 rpm for 10 min and washed once with PBS. The cells were suspended in 10 mL of lysis buffer (25 mM HEPES (pH 7.5), 1% Triton X, 130 mM NaCl, 1 mM EDTA, 1 mM DTT, 25 mM β-glycerophosphate, Protease inhibitor complete (Roche), 1 mM sodium orthovanadate) and ruptured by four times of treatment with a homogenizer (POLYTRON) at 20000 rpm for 30 seconds. Active ASK1 protein was purified from a supernatant obtained by centrifugal separation at 40000 rpm for 45 min using anti-FLAG M2 Affinity Gel (Sigma).
The test compounds (2.5 μl) dissolved in DMSO were added to wells containing 37.5 μl of the reaction solution (25 mM HEPES (pH 7.5), 10 mM magnesium acetate, 1 mM DTT) including 30 ng of active ASK1 protein and 1 μg of myelin basic protein (Wako), and incubated at room temperature for 5 min. To start the reaction, 10 μL of ATP solution (2.5 μM ATP, 0.1 μCi [γ-^32P]ATP) was added to wells. After incubating at room temperature for 30 min, the reaction was terminated by adding 50 μl of 20% TCA solution. The reaction solution was incubated at 4° C. for 30 min and an acid-insoluble fraction was transferred onto a GF/C filter (Packard) with Cell Harvester (Packard), and washed with 250 mM phosphoric acid. After drying at 45° C. for 60 min., 40 μL of Microscint 0 (Packard) was added and the radioactivity was measured with TopCount (Packard). The concentrations (IC50 value) of the test compounds necessary for 50% inhibition of kinase activity were calculated by PRISM 3.0 (Graphpad Software).
The enzyme activities of selected compounds of the present invention against ASK1 were determined using the assay disclosed in Example A and B. The resulted pIC50 values are reported in Table 1.
With `CC(C)(C)c1ccc(C(=O)Nc2cc(N3CCC[C@H](O)C3)n3nccc3n2)cc1` [Compound 75, (S)-4-tert-butyl-N-(7-(3-hydroxypiperidin-1-yl)pyrazolo[1,5-a]pyrimidin-5-yl)benzamide], the IC50 lay within 100 to 1000 nM.
As for `CC(C)(C)c1ccc(C(=O)Nc2cc(N3CCOCC3)n3nccc3n2)cc1` [Compound 65, 4-tert-butyl-N-(7-morpholinopyrazolo[1,5-a]pyrimidin-5-yl)benzamide, trifluoroacetate salt], the IC50 was below 100 nM.
Regarding `CC(C)(O)c1ccc(C(=O)Nc2cc(N3CCC[C@@H]3CO)n3nccc3n2)cc1` [Compound 68, (R)—N-(7-(2-(hydroxymethyl)pyrrolidin-1-yl)pyrazolo[1,5-a]pyrimidin-5-yl)-4-(2-hydroxypropan-2-yl)benzamide], the IC50 lay in the range of 100 to 1000 nM.
As for `CC(C)(O)c1ccc(C(=O)Nc2cc(N3CCC[C@H](O)C3)n3nccc3n2)cc1` [Compound 78, (S)—N-(7-(3-hydroxypiperidin-1-yl)pyrazolo[1,5-a]pyrimidin-5-yl)-4-(2-hydroxypropan-2-yl)benzamide], the IC50 lay within 100 to 1000 nM.
For `CC(C)(C)c1ccc(C(=O)Nc2cc(NC3CC3)n3nccc3n2)cc1` [Compound 128, 4-tert-butyl-N-[7-(cyclopropylamino)pyrazolo[1,5-a]pyrimidin-5-yl]benzamide], the IC50 was below 100 nM.
For `CC(C)(O)c1ccc(C(=O)Nc2cc(N3CCOCC3)n3nccc3n2)cc1` [Compound 72, 4-(2-hydroxypropan-2-yl)-N-(7-morpholinopyrazolo[1,5-a]pyrimidin-5-yl)benzamide] the value was below 100 nM.
Turning to `COc1ccc(-c2cc(NC(=O)c3ccc(C(C)(C)O)cc3)nc3ccnn23)cc1` [Compound 19, 4-(2-Hydroxypropan-2-yl)-N-(7-(4-methoxyphenyl)pyrazolo[1,5-a]pyrimidin-5-yl)benzamide], the IC50 is below 100 nM.
For `CC(C)(O)c1ccc(C(=O)Nc2cc(N3CCC[C@@H](C(N)=O)C3)n3nccc3n2)cc1` [Compound 83, (R)-1-(5-(4-(2-hydroxypropan-2-yl)benzamido)pyrazolo[1,5-a]pyrimidin-7-yl)piperidine-3-carboxamide], the IC50 is below 100 nM.
For `CC(C)(C)c1ccc(C(=O)Nc2cc(N3CCCC(C(N)=O)C3)n3nccc3n2)cc1` (stereo not shown) [Compound 104, 1-(5-(4-tert-butylbenzamido)pyrazolo[1,5-a]pyrimidin-7-yl)piperidine-3-carboxamide] the value was below 100 nM.
As for `CC(C)(C)c1ccc(C(=O)Nc2cc(-c3ccc(C(N)=O)cc3)n3nccc3n2)cc1` [Compound 42, 4-tert-butyl-N-(7-(4-carbamoylphenyl)pyrazolo[1,5-a]pyrimidin-5-yl)benzamide], the IC50 was below 100 nM.
Turning to `COc1ccc(-c2cc(NC(=O)c3ccc(C(C)(C)C)cc3)nc3ccnn23)cn1` [Compound 13, 4-tert-Butyl-N-(7-(6-methoxypyridin-3-yl)pyrazolo[1,5-a]pyrimidin-5-yl)benzamide], the IC50 is above 1000 nM.
Under `Cc1cc2nc(NC(=O)c3ccc(C(C)(C)CO)cc3)cc(-c3ccccc3)n2n1` [Compound 29, 4-(1-hydroxy-2-methylpropan-2-yl)-N-(2-methyl-7-phenylpyrazolo[1,5-a]pyrimidin-5-yl)benzamide] stands below 100 nM.
On to `CC(O)(c1ccc(C(=O)Nc2cc(-c3cccc(CO)c3)n3nccc3n2)cc1)C(F)(F)F` (stereo not shown) [Compound 7, N-(7-(3-(hydroxymethyl)phenyl)pyrazolo[1,5-a]pyrimidin-5-yl)-4-(1,1,1-trifluoro-2-hydroxypropan-2-yl)benzamide], for which the IC50 was below 100 nM.
For `Nc1cc(-c2cccs2)n2nccc2n1` [Compound 175, 7-(thiophen-2-yl) pyrazolo[1,5-a]pyrimidin-5-amine] the value was above 1000 nM; for `Cc1ccc(-c2cc(N)nc3ccnn23)cc1` [Compound 174, 7-p-tolylpyrazolo[1,5-a]pyrimidin-5-amine], above 1000 nM.
Take `CC(C)(O)c1ccc(C(=O)Nc2cc(N3CCc4[nH]ncc4C3)n3nccc3n2)cc1` [Compound 79, N-(7-(6,7-dihydro-1H-pyrazolo[4,3-c]pyridin-5(4H)-yl)pyrazolo[1,5-a]pyrimidin-5-yl)-4-(2-hydroxypropan-2-yl)benzamide]: the IC50 lay in the range of 100 to 1000 nM.
For the compound `Nc1cc(-c2cccc(CO)c2)n2nccc2n1` [Compound 178, (3-(5-aminopyrazolo[1,5-a]pyrimidin-7-yl)phenyl)methanol], the IC50 is above 1000 nM.
For `COc1ccc(-c2cc(NC(=O)c3ccc(C(C)(C)O)nc3)nc3cc(C)nn23)cc1` [Compound 338, 6-(2-hydroxypropan-2-yl)-N-(7-(4-methoxyphenyl)-2-methylpyrazolo[1,5-a]pyrimidin-5-yl)nicotinamide, trifluoroacetate salt] the value was below 100 nM; for `CC(C)(O)c1ccc(C(=O)Nc2cc(N3CCC(O)CC3)n3nccc3n2)cc1` [Compound 73, N-(7-(4-hydroxypiperidin-1-yl)pyrazolo[1,5-a]pyrimidin-5-yl)-4-(2-hydroxypropan-2-yl)benzamide], 100 to 1000 nM.
Turning to `CC(C)(O)c1ccc(C(=O)Nc2cc(-c3ccoc3)n3nccc3n2)cc1` [Compound 18, N-(7-(Furan-3-yl)pyrazolo[1,5-a]pyrimidin-5-yl)-4-(2-hydroxypropan-2-yl)benzamide], the IC50 lay within 100 to 1000 nM.
For the compound `CC(=O)NC1CCN(c2cc(NC(=O)[C@@H]3C[C@H]3c3ccc(F)cc3)nc3cc(C)nn23)CC1` (racemic) [Compound 361, N-(7-(4-acetamidopiperidin-1-yl)-2-methylpyrazolo[1,5-a]pyrimidin-5-yl)-2-(4-fluorophenyl)cyclopropanecarboxamide], the IC50 was below 100 nM.
Under `Cc1cc2nc(NC(=O)c3ccc(C(C)(C)CO)cc3)cc(N(C)CCc3ccccc3)n2n1` [Compound 127, 4-(1-hydroxy-2-methylpropan-2-yl)-N-(2-methyl-7-(methyl(phenethyl)amino)pyrazolo[1,5-a]pyrimidin-5-yl)benzamide] stands above 1000 nM; under `CC(C)(O)c1ccc(C(=O)Nc2cc(NC3CC3)n3nccc3n2)cc1` [Compound 88, N-(7-(cyclopropylamino)pyrazolo[1,5-a]pyrimidin-5-yl)-4-(2-hydroxypropan-2-yl)benzamide], 100 to 1000 nM; under `CC(C)(O)c1ccc(C(=O)Nc2cc(N3CCc4nc[nH]c(=O)c4C3)n3nccc3n2)cc1` [Compound 89, 4-(2-hydroxypropan-2-yl)-N-(7-(4-oxo-3,4,7,8-tetrahydropyrido[4,3-d]pyrimidin-6(5H)-yl)pyrazolo[1,5-a]pyrimidin-5-yl)benzamide], below 100 nM.
`CC(C)(O)c1ccc(C(=O)Nc2cc(N3CCC[C@@H](C(=O)O)C3)n3nccc3n2)cc1` [Compound 84, (R)-1-(5-(4-(2-hydroxypropan-2-yl)benzamido)pyrazolo[1,5-a]pyrimidin-7-yl)piperidine-3-carboxylic acid]: the IC50 was 100 to 1000 nM.
